Test results: patent US20260256792A1, “TREATMENT OF CHRONIC SPONTANEOUS URTICARIA BY ADMINISTERING (R)-2-[3-[4-AMINO-3-(2-FLUORO-4-PHENOXY-PHENYL)PYRAZOLO[3,4-D]PYRIMIDIN-1-YL]PIPERIDINE-1-CARBONYL]-4-METHYL-4-[4-(OXETAN-3-YL)PIPERAZIN-1-YL]PENT-2-ENENITRILE” (priority 2023, published 2026)

Test system: moderate-to-severe chronic spontaneous urticaria (CSU)
Assay: Phase 2 CSU study: urticaria activity score over 7 days (UAS7)
Assay type: in vivo, human
Conditions: ITT
Excerpt: The study comprises a 12 week, randomized, double-blind, placebo-controlled, multi-center, dose-ranging efficacy and safety phase, followed by a 40 week open label extension (OLE) phase (see FIG. 1). The study consists of three phases and an optional OLE phase. […] Clinically, CSU is characterized by the spontaneous and recurrent appearance of pruritic hives. The proposed primary endpoints were the UAS7 at Week 12 in EU and EU reference countries and the ISS7 in the US. Regardless of where a participant was from, all assessments were the same. The UAS7 score is a composite score containing both the HSS7 and the ISS7. This allowed a global assessment of the two key components of urticaria: hives and itch. […] The UAS is a validated PRO measure. […] The daily UAS scores range from 0 to 6 point/day. […] Patients were to complete the UAS using the e-diary. […] The following secondary endpoints were to be analyzed using the same approach as for the primary endpoint: • Change from baseline in UAS7 at Week 4 • Change from baseline in UAS7 at Week 12 (for US and US reference countries) • Change from baseline in ISS7 at Week 12 (except US and US reference countries) • Change from baseline in HSS7 at Week 12 The following responder secondary endpoints were to be analyzed using the Cochran-Mantel-Haenszel test adjusted by region: • Proportion of participants with UAS7<6 at Week 12 • Proportion of participants with UAS7=0 at Week 12 Participants who received selected prohibited medications and/or rescue medications were to be considered as non-responders for time points after the medication usage. For other participants, all available data including those collected during the off-treatment period were to be used to determine the responder/non-responder status. Missing data were to be considered as non-responders.

Question: How did the “Non-responder n (%), UAS7 ≤6” value (400 mg BID, Week 11) turn out when `CC(C)(C=C(C#N)C(=O)N1CCC[C@@H](n2nc(-c3ccc(Oc4ccccc4)cc3F)c3c(N)ncnc32)C1)N1CCN(C2COC2)CC1` [rilzabrutinib, (R)-2-[3-[4-amino-3-(2-fluoro-4-phenoxy-phenyl)pyrazolo[3,4-d]pyrimidin-1-yl]piperidine-1-carbonyl]-4-methyl-4-[4-(oxetan-3-yl)piperazin-1-yl]pent-2-enenitrile] was run?
Answer: The value was 28 (68.3) n (%).

Question: And the “OR for rilzabrutinib vs. placebo, UAS7 = 0” value (400 mg BID, Week 11)?
Answer: Its value is 2.892.

Question: What about the “OR for rilzabrutinib vs. placebo, UAS7 ≤6” value (400 mg BID, Week 11) of the same compound?
Answer: The value was 1.991.

Question: What about the “RRD (%) for rilzabrutinib vs. placebo, UAS7 = 0” value (shortened to “RRD (%) … UAS7 = 0”) (400 mg BID, Week 11) of the same compound?
Answer: Its value is 8.2 %.

Question: And the “RRD (%) for rilzabrutinib vs. placebo, UAS7 ≤6” value (“RRD (%) … UAS7 ≤6” below) (400 mg BID, Week 11)?
Answer: Its value is 11.8 %.

Question: What about the “Responder n (%), UAS7 = 0” value (400 mg BID, Week 11) of the same compound?
Answer: Its value is 6 (14.6) n (%).

Question: And the “Responder n (%), UAS7 ≤6” value (400 mg BID, Week 11)?
Answer: The value was 13 (31.7) n (%).

Question: And the “Imputed non-responder n (%), UAS7 = 0” value (400 mg BID, Week 12)?
Answer: Its value is 14 (34.1) n (%).

Question: And the “Imputed non-responder n (%), UAS7 ≤6” value (400 mg BID, Week 12)?
Answer: Its value is 14 (34.1) n (%).

Question: What about the “Non-responder n (%), UAS7 = 0” value (400 mg BID, Week 12) of the same compound?
Answer: The value was 33 (80.5) n (%).

Question: What about the “Non-responder n (%), UAS7 ≤6” value (400 mg BID, Week 12) of the same compound?
Answer: The value was 31 (75.6) n (%).

Question: And the “OR for rilzabrutinib vs. placebo, UAS7 = 0” value (400 mg BID, Week 12)?
Answer: Its value is 1.511.

Question: And the “OR for rilzabrutinib vs. placebo, UAS7 ≤6” value (400 mg BID, Week 12)?
Answer: Its value is 2.067.

Question: And the “RRD (%) … UAS7 ≤6” value (400 mg BID, Week 12)?
Answer: The value was 10.0 %.

Question: And the “Responder n (%), UAS7 = 0” value (400 mg BID, Week 12)?
Answer: The value was 8 (19.5) n (%).

Question: What about the “Responder n (%), UAS7 ≤6” value (400 mg BID, Week 12) of the same compound?
Answer: Its value is 10 (24.4) n (%).

Question: And the “Imputed non-responder n (%), UAS7 = 0” value (400 mg QPM, Week 1)?
Answer: The value was 0 n (%).

Question: And the “Imputed non-responder n (%), UAS7 ≤6” value (400 mg QPM, Week 1)?
Answer: The value was 0 n (%).

Question: And the “Non-responder n (%), UAS7 = 0” value (400 mg QPM, Week 1)?
Answer: The value was 38 (100) n (%).

Question: And the “Non-responder n (%), UAS7 ≤6” value (400 mg QPM, Week 1)?
Answer: The value was 36 (94.7) n (%).

Question: And the “OR for rilzabrutinib vs. placebo, UAS7 = 0” value (400 mg QPM, Week 1)?
Answer: The value was 0.000 (NE,.

Question: What about the “OR for rilzabrutinib vs. placebo, UAS7 ≤6” value (400 mg QPM, Week 1) of the same compound?
Answer: The value was 1.099.

Question: What about the “RRD (%) … UAS7 = 0” value (400 mg QPM, Week 1) of the same compound?
Answer: The value was −2.6 %.

Question: And the “RRD (%) … UAS7 ≤6” value (400 mg QPM, Week 1)?
Answer: Its value is 0.4 %.

Question: What about the “Responder n (%), UAS7 = 0” value (400 mg QPM, Week 1) of the same compound?
Answer: Its value is 0 n (%).

Question: What about the “Responder n (%), UAS7 ≤6” value (400 mg QPM, Week 1) of the same compound?
Answer: Its value is 2 (5.3) n (%).

Question: And the “Imputed non-responder n (%), UAS7 = 0” value (400 mg QPM, Week 2)?
Answer: The value was 0 n (%).

Question: And the “Imputed non-responder n (%), UAS7 ≤6” value (400 mg QPM, Week 2)?
Answer: Its value is 0 n (%).

Question: What about the “Non-responder n (%), UAS7 = 0” value (400 mg QPM, Week 2) of the same compound?
Answer: Its value is 38 (100) n (%).

Question: And the “Non-responder n (%), UAS7 ≤6” value (400 mg QPM, Week 2)?
Answer: The value was 37 (97.4) n (%).

Question: What about the “OR for rilzabrutinib vs. placebo, UAS7 = 0” value (400 mg QPM, Week 2) of the same compound?
Answer: Its value is 0.000 (NE,.

Question: And the “OR for rilzabrutinib vs. placebo, UAS7 ≤6” value (400 mg QPM, Week 2)?
Answer: Its value is 0.517.

Question: And the “RRD (%) … UAS7 = 0” value (400 mg QPM, Week 2)?
Answer: Its value is −2.6 %.

Question: And the “RRD (%) … UAS7 ≤6” value (400 mg QPM, Week 2)?
Answer: Its value is −2.3 %.

Question: And the “Responder n (%), UAS7 = 0” value (400 mg QPM, Week 2)?
Answer: The value was 0 n (%).

Question: What about the “Responder n (%), UAS7 ≤6” value (400 mg QPM, Week 2) of the same compound?
Answer: Its value is 1 (2.6) n (%).

Question: What about the “Imputed non-responder n (%), UAS7 = 0” value (400 mg QPM, Week 3) of the same compound?
Answer: Its value is 0 n (%).

Question: And the “Imputed non-responder n (%), UAS7 ≤6” value (400 mg QPM, Week 3)?
Answer: The value was 0 n (%).

Question: And the “Non-responder n (%), UAS7 = 0” value (400 mg QPM, Week 3)?
Answer: Its value is 38 (100) n (%).

Question: What about the “Non-responder n (%), UAS7 ≤6” value (400 mg QPM, Week 3) of the same compound?
Answer: Its value is 36 (94.7) n (%).

Question: And the “OR for rilzabrutinib vs. placebo, UAS7 = 0” value (400 mg QPM, Week 3)?
Answer: Its value is 0.000 (NE,.

Question: And the “OR for rilzabrutinib vs. placebo, UAS7 ≤6” value (400 mg QPM, Week 3)?
Answer: The value was 0.553.

Question: What about the “RRD (%) … UAS7 = 0” value (400 mg QPM, Week 3) of the same compound?
Answer: Its value is −2.6 %.

Question: What about the “RRD (%) … UAS7 ≤6” value (400 mg QPM, Week 3) of the same compound?
Answer: Its value is −3.9%.

Question: What about the “Responder n (%), UAS7 = 0” value (400 mg QPM, Week 3) of the same compound?
Answer: Its value is 0 n (%).

Question: What about the “Responder n (%), UAS7 ≤6” value (400 mg QPM, Week 3) of the same compound?
Answer: The value was 2 (5.3) n (%).

Question: And the “Imputed non-responder n (%), UAS7 = 0” value (400 mg QPM, Week 4)?
Answer: The value was 1 (2.6) n (%).

Question: What about the “Imputed non-responder n (%), UAS7 ≤6” value (400 mg QPM, Week 4) of the same compound?
Answer: Its value is 1 (2.6) n (%).

Question: What about the “Non-responder n (%), UAS7 = 0” value (400 mg QPM, Week 4) of the same compound?
Answer: Its value is 38 (100) n (%).

Question: And the “Non-responder n (%), UAS7 ≤6” value (400 mg QPM, Week 4)?
Answer: Its value is 36 (94.7) n (%).

Question: And the “OR for rilzabrutinib vs. placebo, UAS7 = 0” value (400 mg QPM, Week 4)?
Answer: The value was 0.000 (NE,.

Question: What about the “OR for rilzabrutinib vs. placebo, UAS7 ≤6” value (400 mg QPM, Week 4) of the same compound?
Answer: The value was 0.432.

Question: What about the “RRD (%) … UAS7 = 0” value (400 mg QPM, Week 4) of the same compound?
Answer: The value was −4.8 %.

Question: What about the “RRD (%) … UAS7 ≤6” value (400 mg QPM, Week 4) of the same compound?
Answer: Its value is −6.0%.

Question: And the “Responder n (%), UAS7 = 0” value (400 mg QPM, Week 4)?
Answer: Its value is 0 n (%).

Question: And the “Responder n (%), UAS7 ≤6” value (400 mg QPM, Week 4)?
Answer: The value was 2 (5.3) n (%).

Question: What about the “Imputed non-responder n (%), UAS7 = 0” value (400 mg QPM, Week 5) of the same compound?
Answer: The value was 2 (5.3) n (%).

Question: What about the “Imputed non-responder n (%), UAS7 ≤6” value (400 mg QPM, Week 5) of the same compound?
Answer: The value was 2 (5.3) n (%).

Question: And the “Non-responder n (%), UAS7 = 0” value (400 mg QPM, Week 5)?
Answer: The value was 37 (97.4) n (%).

Question: What about the “Non-responder n (%), UAS7 ≤6” value (400 mg QPM, Week 5) of the same compound?
Answer: The value was 36 (94.7) n (%).

Question: And the “OR for rilzabrutinib vs. placebo, UAS7 = 0” value (400 mg QPM, Week 5)?
Answer: The value was 1.000.

Question: And the “OR for rilzabrutinib vs. placebo, UAS7 ≤6” value (400 mg QPM, Week 5)?
Answer: The value was 1.065.

Question: And the “RRD (%) … UAS7 = 0” value (400 mg QPM, Week 5)?
Answer: The value was 0.0 %.

Question: And the “RRD (%) … UAS7 ≤6” value (400 mg QPM, Week 5)?
Answer: Its value is 0.3 %.

Question: What about the “Responder n (%), UAS7 = 0” value (400 mg QPM, Week 5) of the same compound?
Answer: Its value is 1 (2.6) n (%).

Question: What about the “Responder n (%), UAS7 ≤6” value (400 mg QPM, Week 5) of the same compound?
Answer: Its value is 2 (5.3) n (%).
